From patent US20150031056A1, “DEVELOPMENT OF SPECIFIC IMMUNOASSAY CRITICAL REAGENTS FOR PHARMACOKINETIC ASSESSMENTS OF PEPTIDE POLYMERS IN PRECLINICAL AND CLINICAL MATRICES” (priority 2011, published 2015) come the findings set out here.

Several values for one entry are separate records, joined by “and”; a condition that tells them apart may be missing. Identical values can stand only once.

The nature of the data set: Pilot PK study in Sprague Dawley rats (serum Copaxone by ELISA). The format is in vivo. To be noted: Copaxone 20 mg/kg B.wt. The procedure:
A series of serum samples, each containing Copaxone spiked at known concentration and forming a set of calibrator standards to generate a calibration curve to quantify Copaxone in the serum samples of the given species was made in the serum with Copaxone at levels […], 30000 ng/ml, 4000 ng/ml, 2000 ng/ml, 1000 ng/ml, 500 ng/ml, 250 ng/ml, 125 ng/ml, 62.5 ng/ml, 31.3 ng/ml, 7.8 ng/ml and 3.9 ng/ml in neat serum.
ELISA plate is precoated with Polyclonal Rabbit Anti Copaxone antibodies and the appropriately diluted serum samples constituting the calibrator standards and samples for analysis were incubated for binding to the coated Anti Copaxone antibodies and unbound and poorly bound serum components were separated during washing with PBST (Phosphate buffered saline with 0.1% tween 20).The bound Copaxone was detected using biotin labeled Polyclonal Rabbit Anti Copaxone antibodies and streptavidin Alkaline phosphatase conjugate. Substrate was added to the wells and the blue colored signal obtained at 640 nm for the test samples is compared with the calibration curve prepared from concentration-response relationship of the calibrators to determine the unknown concentration of Copaxone in the serum samples.
Three male Sprague Dawley rats were dosed with Copaxone at 20 mg per kg body weight with a dosing volume of […] at the dose concentration of 20mg/ml per day. The dosage was selected based on minimum feasible dose (based on dose volume of 1 ml per kg) for the given strength of 20 mg/ml. Each animal was weighed and dosed with Copaxone @ 20 mg/kg B.wt. Blood samples were collected in 10 μl of Protease inhibitor from each animal at the time point 5 min, 10 min, 15 min, 20 min, 30 min, 45 min, 1, 2, 3, 4, 6, 10 and 24 hours. The blood samples were stored on wet ice for serum separation. The serum was separated and stored at −80° C. till the shipment. The samples till 24 hours were shipped in Dry Ice […].

The mark [1] stands for this setting: Mean of three male Sprague Dawley rats.
The mark [2] stands for this setting: individual male Sprague Dawley rat (Rat 1, 2, 3).

On to Glatiramer acetate [Copaxone], for which, under setting [1], the AUC0-inf was 25507 ng·min/mL; the AUC0-t turned out to be 25211.81 ng·min/mL; the “AUC % Extrap_obs (Should be < 5%)” value turned out to be 1.24%; the Cmax (in general, the maximum level reached in the sampled fluid or tissue) was found to be 1824.12 ng/mL. Under setting [1], the T1/2 is 27.45 min and the time of peak concentration (Tmax) (in general, the time at which the peak concentration occurs) came out at 11.67 min. Moreover, under setting [2], the AUC0-inf is 25654.06 ng·min/mL and 15705.6 ng·min/mL and 35161.34 ng·min/mL; the AUC0-t is 25491.53 ng·min/mL and 15411.63 ng·min/mL and 34732.28 ng·min/mL; the “AUC % Extrap_obs (Should be < 5%)” value is 0.63% and 1.87% and 1.22%; the Cmax was 968.69 ng/mL and 510.79 ng/mL and 3992.88 ng/mL. For the same substance, the Tmax under setting [2] was 15 min and 10 min. Besides, the T1/2 (individual male Sprague Dawley rat (Rat 1, 2, 3), samples 5 min to 24 hours) was 31.18 min and 23.39 min and 27.79 min.
